From the supplement of paper PMC11451515

Key:
Conditions in all cases: 48 h
[1] = tested on: NOMO1; assay: cell viability relative to DMSO control; higher = less cytotoxic
Method in brief: (§1)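 Viability, reported as a per-plate percentage of DMSO wells with cell-free wells as background, came from CellTiter-Glo One luminescence. Reading took place after 48 h at 37°C. Before that, NOMO1 or SEM (500 cells/well) or P12-Ichikawa (1000 cells/well) leukemia cells, adapted for at least four passages in each medium, were seeded in 1536-well plates (5 μl) and pin-dosed with library compounds in DMSO, 47 μM to 0.79 nM over 11 threefold points.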

[2] = tested on: P12-Ichikawa; assay: as above
Method in brief: as §1

[3] = tested on: SEM cells; assay: as above
Method in brief: as §1

[4] = tested on: NOMO1; assay: AUC of viability dose-response curve (% viability x log10 dose units); higher = less sensitive
Method in brief: (§2)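 Viability of medium-adapted leukemia cells was measured by CellTiter-Glo One luminescence after 48 h at 37°C with library compounds in DMSO. Doses were 11 threefold steps from 47 μM to 0.79 nM, in 1536-well plates at 500 or 1000 cells/well. Signals were normalised per plate to DMSO and cell-free wells and fitted with a four-parameter log-logistic model on log10 dose. Area under the curve was integrated by trapezoidal rule, with curves exceeding full viability scaled and failed quality-control curves removed.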

[5] = tested on: P12-Ichikawa; assay: as above
Method in brief: as §2

[6] = tested on: SEM cells; assay: as above
Method in brief: as §2

O=C(CCCN1CCC(O)(c2ccc(Cl)cc2)CC1)c1ccc(F)cc1
cell viability [%]
Conditions	[1]	[2]	[3]
HPLM + 10% dialyzed FBS, 0.000781 µM	115	105	86.5
HPLM + 10% dialyzed FBS, 0.00234 µM	119	107	93.9
HPLM + 10% dialyzed FBS, 0.00702 µM	108	109	75.6
HPLM + 10% dialyzed FBS, 0.0211 µM	111	116	106
HPLM + 10% dialyzed FBS, 0.0632 µM	114	119	113
HPLM + 10% dialyzed FBS, 0.19 µM	133	123	94.8
HPLM + 10% dialyzed FBS, 0.569 µM	135	111	25.8
HPLM + 10% dialyzed FBS, 1.71 µM	129	111	43.8
HPLM + 10% dialyzed FBS, 5.12 µM	126	119	90.2
HPLM + 10% dialyzed FBS, 15.4 µM	110	127	102
HPLM + 10% dialyzed FBS, 46.1 µM	91.7	107	98.3
RPMI 5 mM glucose + 10% FBS, 0.000781 µM	95.3	106	100
RPMI 5 mM glucose + 10% FBS, 0.00234 µM	106	112	109
RPMI 5 mM glucose + 10% FBS, 0.00702 µM	101	111	82.6
RPMI 5 mM glucose + 10% FBS, 0.0211 µM	109	124	101
RPMI 5 mM glucose + 10% FBS, 0.0632 µM	128	124	113
RPMI 5 mM glucose + 10% FBS, 0.19 µM	117	132	117
RPMI 5 mM glucose + 10% FBS, 0.569 µM	110	116	20.9
RPMI 5 mM glucose + 10% FBS, 1.71 µM	119	126	47.2
RPMI 5 mM glucose + 10% FBS, 5.12 µM	102	124	117
RPMI 5 mM glucose + 10% FBS, 15.4 µM	110	131	110
RPMI 5 mM glucose + 10% FBS, 46.1 µM	82.1	95.9	89.6
RPMI 5 mM glucose + 10% dialyzed FBS, 0.000781 µM	115	108	101
RPMI 5 mM glucose + 10% dialyzed FBS, 0.00234 µM	121	114	106
RPMI 5 mM glucose + 10% dialyzed FBS, 0.00702 µM	114	117	95.5
RPMI 5 mM glucose + 10% dialyzed FBS, 0.0211 µM	110	111	110
RPMI 5 mM glucose + 10% dialyzed FBS, 0.0632 µM	125	116	123
RPMI 5 mM glucose + 10% dialyzed FBS, 0.19 µM	115	131	120
RPMI 5 mM glucose + 10% dialyzed FBS, 0.569 µM	120	115	30.6
RPMI 5 mM glucose + 10% dialyzed FBS, 1.71 µM	116	115	43
RPMI 5 mM glucose + 10% dialyzed FBS, 5.12 µM	122	119	122
RPMI 5 mM glucose + 10% dialyzed FBS, 15.4 µM	117	112	122
RPMI 5 mM glucose + 10% dialyzed FBS, 46.1 µM	82.5	99.8	101

AUC of viability dose-response curve
Conditions	HPLM + 10% dialyzed FBS	RPMI 5 mM glucose + 10% FBS	RPMI 5 mM glucose + 10% dialyzed FBS
[4]	467	471	470
[5]	459	466	470

N[C@@H]1C[C@H]1c1ccccc1
[3], HPLM + 10% dialyzed FBS
Conditions	cell viability [%]
0.000781 µM	122
0.00234 µM	115
0.00702 µM	148
0.0211 µM	124
0.0632 µM	107
0.19 µM	137
0.569 µM	131
1.71 µM	119
5.12 µM	107
15.4 µM	117
46.1 µM	109

AUC of viability dose-response curve
Conditions	[4]	[5]	[6]
HPLM + 10% dialyzed FBS	464	437	449
RPMI 5 mM glucose + 10% FBS	468	462	456
RPMI 5 mM glucose + 10% dialyzed FBS	465	459	457
